Source: patent publication US20250059179A1, “Heterocyclic Compounds and Methods of Use” (AMGEN INC., priority 2021, published 2025)

Legend:
[1] = target: His-tagged KRAS G12D protein (Homo sapiens, UniProt P01116, G12D); test: KRAS G12D TR-FRET Assay; format: binding; conditions: biotinylated KRPep-2d substrate, 10 μM GDP;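 further: europium anti-His antibody paired with streptavidin-d2 as FRET partners, initial 30 min incubation, then peptide 1 h and detection reagents 1 h, all at room temperature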
[2] = target: GDP-bound KRAS protein (aa 1-169), containing both G12D and C118A amino acid substitutions (Homo sapiens, UniProt P01116, C118A/G12D); test: KRAS G12D Coupled Nucleotide Exchange Assay; format: biochemical; conditions: 2 h compound pre-incubation; SOS-mediated nucleotide exchange, cRAF AlphaScreen readout;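 further: IC50 obtained by fitting the AlphaScreen signal with a four-parameter logistic curve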
GDP-bound KRAS protein (aa 1-169), containing both G12D and C118A amino acid substitutions, sequence (P01116 1-169 isoform P01116-2 G12D/C118A): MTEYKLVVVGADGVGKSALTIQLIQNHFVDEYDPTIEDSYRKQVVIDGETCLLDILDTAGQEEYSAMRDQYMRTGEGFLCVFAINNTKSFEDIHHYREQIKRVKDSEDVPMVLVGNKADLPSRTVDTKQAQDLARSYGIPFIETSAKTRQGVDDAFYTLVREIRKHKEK

His-tagged KRAS G12D protein, sequence (P01116 1-188 isoform P01116-2 G12D): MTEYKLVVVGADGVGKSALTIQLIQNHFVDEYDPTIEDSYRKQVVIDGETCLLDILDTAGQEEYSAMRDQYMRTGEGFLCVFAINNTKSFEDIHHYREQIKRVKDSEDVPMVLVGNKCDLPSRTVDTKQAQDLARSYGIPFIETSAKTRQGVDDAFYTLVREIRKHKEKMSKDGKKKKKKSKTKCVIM

Row | IC50 [1] [µM] | Avg 2 h Coupled Exchange IC50 [2] [µM] | SMILES
1 | 2.97 | 0.803 | CC1CNCC=C1c1nc(OC[C@@H]2CCCN2C)nc2c(F)c(-c3cccc4sc(N)nc34)c(Cl)cc12 (single isomer, unassigned) [Example 145]
2 | 4.09 | 1.56 | CC1CNCC=C1c1nc(OC[C@@H]2CCCN2C)nc2c(F)c(-c3cccc4sc(N)nc34)c(Cl)cc12 (single isomer, unassigned) [Example 146]
3 | 11.3 | 3.655 | CN1CCC[C@H]1COc1nc(N2CCNC(C(F)(F)F)C2)c2cc(Cl)c(-c3cccc4sc(N)nc34)c(F)c2n1 (stereo partly drawn) [Example 1, 4-(6-Chloro-8-fluoro-2-(((S)-1-methylpyrrolidin-2-yl)methoxy)-4-(3-(trifluoromethyl)piperazin-1-yl)quinazolin-7-yl)benzo[d]thiazol-2-amine]
4 | 0.009 | 0.007 | Nc1nc2c(-c3c(Cl)cc4c(N5CCNCC5)nc(OCC56CCCN5CCC6)nc4c3F)ccc(F)c2s1 [Example 8, 4-(6-chloro-8-fluoro-4-(piperazin-1-yl)-2-((tetrahydro-1H-pyrrolizin-7a(5H)-yl)methoxy)quinazolin-7-yl)-7-fluorobenzo[d] thiazol-2-amine]
5 | 0.014 | 0.01 | CN1CCC[C@H]1COc1nc(N2C3CNCC2COC3)c2cc(Cl)c(-c3cccc4sc(N)nc34)c(F)c2n1 [Example 10, 4-(4-(3-oxa-7,9-diazabicyclo[3.3.1]nonan-9-yl)-6-chloro-8-fluoro-2-(((S)-1-methylpyrrolidin-2-yl)methoxy)quinazolin-7-yl)benzo[d] thiazol-2-amine]
6 | 0.018 | 0.014 | Nc1nc2c(-c3c(Cl)cc4c(N5CCCNC(=O)C5)nc(OCC56CCCN5CCC6)nc4c3F)ccc(F)c2s1 [Example 12, 4-(7-(2-amino-7-fluorobenzo[d]thiazol-4-yl)-6-chloro-8-fluoro-2-((tetrahydro-1H-pyrrolizin-7a(5H)-yl)methoxy)quinazolin-4-yl)-1,4-diazepan-2-one]
7 | 0.022 | 0.014 | Nc1nc2c(-c3c(Cl)cc4c(N5CCNC(=O)CC5)nc(OCC56CCCN5CCC6)nc4c3F)ccc(F)c2s1 [Example 13, 1-(7-(2-amino-7-fluorobenzo [d]thiazol-4-yl)-6-chloro-8-fluoro-2-((tetrahydro-1H-pyrrolizin-7a(5H)-yl)methoxy)quinazolin-4-yl)-1,4-diazepan-5-one]
8 | 0.135 | 0.03 | CN1CCC[C@H]1COc1nc(N2CCCNCC2)c2cc(Cl)c(-c3cccc4sc(N)nc34)c(F)c2n1 [Example 17, 4-(6-chloro-4-(1,4-diazepan-1-yl)-8-fluoro-2-(((S)-1-methylpyrrolidin-2-yl)methoxy)quinazolin-7-yl)benzo[d] thiazol-2-amine]
9 | 0.085 | 0.062 | CN1C[C@H](F)C[C@H]1COc1nc(N2CCCNC(=O)C2)c2cc(Cl)c(-c3ccc(F)c4sc(N)nc34)c(F)c2n1 [Example 19, 4-(7-(2-amino-7-fluorobenzo[d]thiazol-4-yl)-6-chloro-8-fluoro-2-(((2S,4R)-4-fluoro-1-methylpyrrolidin-2-yl)methoxy)quinazolin-4-yl)-1,4-diazepan-2-one]
10 | 0.097 | 0.067 | CN1C[C@H](F)C[C@H]1COc1nc(N2CCNC(=O)CC2)c2cc(Cl)c(-c3ccc(F)c4sc(N)nc34)c(F)c2n1 [Example 21, 1-(7-(2-amino-7-fluorobenzo[d]thiazol-4-yl)-6-chloro-8-fluoro-2-(((2S,4R)-4-fluoro-1-methylpyrrolidin-2-yl)methoxy)quinazolin-4-yl)-1,4-diazepan-5-one]
11 | – | 1.85 | Nc1nc2c(-c3c(Cl)cc4c(N5CCNCC5)nc(N5CC6(CCOCC(=O)N6)C5)nc4c3F)cccc2s1 [Example 105, 2-[7-(2-amino-1,3-benzothiazol-4-yl)-6-chloro-8-fluoro-4-piperazin-1-yl-quinazolin-2-yl]-8-oxa-2,5-diazaspiro[3.6]decan-6-one]
12 | – | 1.9 | Nc1nc2c(-c3c(Cl)cc4c(N5CCNCC5)nc(NCC(O)c5cncs5)nc4c3F)cccc2s1 (stereo not shown) [Example 106, 2-[[7-(2-amino-1,3-benzothiazol-4-yl)-6-chloro-8-fluoro-4-piperazin-1-yl-quinazolin-2-yl]amino]-1-thiazol-5-yl-ethanol]
13 | – | 1.9 | Nc1nc2c(-c3c(Cl)cc4c(N5CCNCC5)nc(N5CCN6CCC5C6)nc4c3F)cccc2s1 (stereo not shown) [Example 107, 4-[6-chloro-8-fluoro-4-piperazin-1-yl-2-[1,4-diazabicyclo[3.2.1]octan-4-yl]quinazolin-7-yl]-1,3-benzothiazol-2-amine]
14 | – | 1.97 | Nc1nc2c(-c3c(Cl)cc4c(N5CCNCC5)nc(N5CC6(CC(O)c7nccn76)C5)nc4c3F)cccc2s1 (stereo not shown) [Example 108, 1′-[7-(2-amino-1,3-benzothiazol-4-yl)-6-chloro-8-fluoro-4-piperazin-1-yl-quinazolin-2-yl]spiro[6,7-dihydropyrrolo[1,2-a]imidazole-5,3′-azetidine]-7-ol]
15 | – | 2.17 | Nc1nc2c(-c3c(Cl)cc4c(N5CCNCC5)nc(N5CCC6(CCN6)C5)nc4c3F)cccc2s1 (stereo not shown) [Example 109, 4-[6-chloro-8-fluoro-4-piperazin-1-yl-2-[1,7-diazaspiro[3.4]octan-7-yl]quinazolin-7-yl]-1,3-benzothiazol-2-amine]
16 | – | 2.18 | Nc1nc2c(-c3c(Cl)cc4c(N5CCNCC5)nc(N[C@H]5CCc6ncsc6C5)nc4c3F)cccc2s1 [Example 110, 4-[6-chloro-8-fluoro-4-piperazin-1-yl-2-[[(6S)-4,5,6,7-tetrahydro-1,3-benzothiazol-6-yl]amino]quinazolin-7-yl]-1,3-benzothiazol-2-amine]
17 | – | 2.3 | Nc1nc2c(-c3c(Cl)cc4c(N5CCNCC5)nc(N5CC(N6CCS(=O)(=O)CC6)C5)nc4c3F)cccc2s1 [Example 111, 4-[6-chloro-2-[3-(1,1-dioxo-1,4-thiazinan-4-yl)azetidin-1-yl]-8-fluoro-4-piperazin-1-yl-quinazolin-7-yl]-1,3-benzothiazol-2-amine]
18 | – | 2.46 | CCN1CCN(C2CN(c3nc(N4CCNCC4)c4cc(Cl)c(-c5cccc6sc(N)nc56)c(F)c4n3)C2)CC1 [Example 112, 4-[6-chloro-2-[3-(4-ethylpiperazin-1-yl)azetidin-1-yl]-8-fluoro-4-piperazin-1-yl-quinazolin-7-yl]-1,3-benzothiazol-2-amine]
19 | – | 2.48 | CN1C(=O)CC2(CN(c3nc(N4CCNCC4)c4cc(Cl)c(-c5cccc6sc(N)nc56)c(F)c4n3)C2)n2ccnc21 [Example 113, 1′-[7-(2-amino-1,3-benzothiazol-4-yl)-6-chloro-8-fluoro-4-piperazin-1-yl-quinazolin-2-yl]-8-methyl-spiro[6H-imidazo[1,2-a]pyrimidine-5,3′-azetidine]-7-one]
20 | – | 2.77 | Nc1nc2c(-c3c(Cl)cc4c(N5CCNCC5)nc(N5CC6CNC(C6)C5)nc4c3F)cccc2s1 (stereo not shown) [Example 114, 4-[6-chloro-8-fluoro-4-piperazin-1-yl-2-[3,6-diazabicyclo[3.2.1]octan-3-yl]quinazolin-7-yl]-1,3-benzothiazol-2-amine]
21 | – | 2.86 | Nc1nc2c(-c3c(Cl)cc4c(N5CCNCC5)nc(N5C[C@@H]6NCC[C@@H]65)nc4c3F)cccc2s1 [Example 115, 4-[6-chloro-2-[(1S,5S)-2,6-diazabicyclo[3.2.0]heptan-6-yl]-8-fluoro-4-piperazin-1-yl-quinazolin-7-yl]-1,3-benzothiazol-2-amine]
22 | – | 3.11 | Nc1nc2c(-c3c(Cl)cc4c(N5CCNCC5)nc(N5CC(n6ccnc6)C5)nc4c3F)cccc2s1 [Example 116, 4-[6-chloro-8-fluoro-2-(3-imidazol-1-ylazetidin-1-yl)-4-piperazin-1-yl-quinazolin-7-yl]-1,3-benzothiazol-2-amine]
23 | – | 3.32 | CC1(C)CN(C2CN(c3nc(N4CCNCC4)c4cc(Cl)c(-c5cccc6sc(N)nc56)c(F)c4n3)C2)CCO1 [Example 117, 4-[6-chloro-2-[3-(2,2-dimethylmorpholin-4-yl)azetidin-1-yl]-8-fluoro-4-piperazin-1-yl-quinazolin-7-yl]-1,3-benzothiazol-2-amine]
24 | – | 3.37 | Nc1nc2c(-c3c(Cl)cc4c(N5CCNCC5)nc(N5CC6(C5)NCC6(F)F)nc4c3F)cccc2s1 [Example 118, 4-[6-chloro-2-(3,3-difluoro-1,6-diazaspiro[3.3]heptan-6-yl)-8-fluoro-4-piperazin-1-yl-quinazolin-7-yl]-1,3-benzothiazol-2-amine]
25 | – | 3.67 | CCOC(=O)c1ccn(C2CN(c3nc(N4CCNCC4)c4cc(Cl)c(-c5cccc6sc(N)nc56)c(F)c4n3)C2)n1 [Example 119, ethyl 1-[1-[7-(2-amino-1,3-benzothiazol-4-yl)-6-chloro-8-fluoro-4-piperazin-1-yl-quinazolin-2-yl]azetidin-3-yl]pyrazole-3-carboxylate]
26 | – | 3.9 | Nc1nc2c(-c3c(Cl)cc4c(N5CCNCC5)nc(N5CC6(CCNC6)C5)nc4c3F)cccc2s1 [Example 120, 4-[6-chloro-2-(2,7-diazaspiro[3.4]octan-2-yl)-8-fluoro-4-piperazin-1-yl-quinazolin-7-yl]-1,3-benzothiazol-2-amine]
27 | – | 3.95 | Nc1nc2c(-c3c(Cl)cc4c(N5CCNCC5)nc(N5CCCC(c6nccs6)C5)nc4c3F)cccc2s1 (stereo not shown) [Example 121, 4-[6-chloro-8-fluoro-4-piperazin-1-yl-2-[3-thiazol-2-yl-1-piperidyl]quinazolin-7-yl]-1,3-benzothiazol-2-amine]
